Results taken from patent US10392389B2, “Heterocyclic compounds for the inhibition of PASK” (BioEnergenix, LLC, priority 2012, dated 2019).

Target: T1, PASK (Invitrogen) (Homo sapiens, UniProt Q96RG2)
T1 construct: IC50 Kinase Domain; purchased Invitrogen
Assay: PAS Kinase FRET Assay
Format: biochemical
Details: PAS kinase TR-FRET assay (665 nm/615 nm); read-out: IC50 Kinase Domain
Source text: Biochemical Assay for hPASK Activity
The aim of the FRET assay is to determine the inhibition potential of test compounds on targeted kinase. This assay platform provides a homogenous screening method for measuring kinase activity by quantitating the amount of phospho-substrate in solution following a kinase reaction.
In the presence of kinase and ATP, the Ulight-peptide is phosphorylated and captured by an anti-phospho-substrate antibody, which brings the Eu chelate donor and Ulight acceptor dyes into close proximity. Upon excitation at 340 nm, the Eu chelate transfers its energy to the Ulight dye, resulting in a fluorescent light emission at 665 nm.
Titration of kinase at 1 mM ATP was achieved via the following protocol. After making serial three-fold dilutions of PASK (Invitrogen) in reaction buffer across the plate; 5 μl of kinase dilution and 5 μl substrate/ATP mix were added to the wells of the white Optiplate-384 (PerkinElmer). The contents of the plate were and incubated at RT for 1 h. The reaction was stopped by adding 5 μl of stop solution to each test well followed by mixing and incubation at RT for 10 minutes. 5 μl of detection mix (detection antibody diluted in detection buffer) was added; the contents of the plate were mixed and then incubated in the dark for 1 hour at RT. The signal was recorded at TR-FRET mode (665 nm/615 nm). The results were graphed to calculate the EC50.
Titration of ATP at the EC50 concentration of kinase to determine ATP Km,app. was performed using the following method. After making serial dilutions of ATP (Invitrogen), 5 μl of ATP dilution and 5 μl substrate/kinase mix were added to the wells of the white Optiplate-384 (PerkinElmer). The contents of the plate were and incubated at RT for 1 h. The reaction was stopped by adding 5 μl of stop solution to each test well followed by mixing and incubation at RT for 10 minutes. 5 μl of detection mix (detection antibody diluted in detection buffer) was added; the contents of the plate were mixed and then incubated in the dark for 1 hour at RT. The signal was recorded at TR-FRET mode (665 nm/615 nm). The results were graphed to calculate the EC50 as the ATP Km,app.
Compound screening was done via the following method. 10 mM stock solution of test compound in DMSO was prepared by dissolving test compound in DMSO at RT for 1 hour, and then sonicating at 100% output for 8 minutes. If compound is not soluble under this condition, it was diluted to 3 mM. Kinase reaction buffer was prepared containing 10 mM MgCl2, 50 mM HEPES, 1 mM EGTA, 0.01% TWEEN-20, 2 mM DTT. Serial dilutions of the test compounds were prepared at 4× final assay concentrations using Freedom EVO200® dispensing system as follows: 12×10^−5 M, 4×10^−5 M, 1.33×10^−5 M, 4.44×10^−6 M, 1.48×10^−6 M, 4.92×10^−7 M, 1.65×10^−7 M, […], 1.82×10^−8M, 6.09×10^−9, 2.03×10^−9 M. Test compounds (2.5 μl at 4× the final assay concentration) was added to wells using Freedom EVO200® dispensing system. As a positive control, 2.5 μl of positive compound was added to assay wells, and 2.5 μl of DMSO to assay wells as vehicle control. Kinase solution was prepared in reaction buffer at 2× final assay concentration. Kinase solution (5 μl) was added to each well of the assay plate. The substrate and ATP solution was prepared in kinase reaction buffer at 4× final assay concentration. The kinase reaction was started by adding 2.5 μl of substrate+ATP mix solution to each well of the assay plate. The plate is mixed on a plate shaker; then covered and allowed to react for 2 hours in the dark at 25° C. without shaking. The reaction was stopped by adding 5 μl of stop solution to each test well followed by mixing and incubation at RT for 10 minutes in the dark. 5 μl of detection mix (detection antibody diluted in detection buffer) was added; the contents of the plate were mixed and then incubated in the dark for 1 hour at RT. The signal was recorded at TR-FRET mode (665 nm/615 nm).

T1 sequence (Q96RG2 999-1251 limits assumed): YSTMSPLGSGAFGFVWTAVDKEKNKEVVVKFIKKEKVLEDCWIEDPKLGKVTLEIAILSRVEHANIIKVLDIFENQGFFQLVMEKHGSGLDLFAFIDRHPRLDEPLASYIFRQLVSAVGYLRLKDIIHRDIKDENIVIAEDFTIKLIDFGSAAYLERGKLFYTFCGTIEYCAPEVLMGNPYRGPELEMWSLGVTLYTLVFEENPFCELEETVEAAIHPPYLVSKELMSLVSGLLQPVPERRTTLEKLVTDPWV

IC50, ≤ 10 µM:
Cc1coc(-c2cnn3c(=O)cc(-c4ccc5onc(C)c5c4)[nH]c23)n1 [Example 90, 5-(3-methylbenzo[d]isoxazol-5-yl)-3-(4-methyloxazol-2-yl)pyrazolo[1,5-a]pyrimidin-7(4H)-one]
CCn1ncc2cc(-c3cc(=O)n4nc(C)c(-c5ncco5)c4[nH]3)ccc21 [Example 29, 5-(1-ethyl-1H-indazol-5-yl)-2-methyl-3-(oxazol-2-yl)-4H,7H-pyrazolo[1,5-a]pyrimidin-7-one]
Cc1coc(-c2cnn3c(=O)cc(-c4ccc5[nH]nnc5c4)[nH]c23)n1 [Example 11, 5-(1H-1,2,3-benzotriazol-5-yl)-3-(4-methyl-1,3-oxazol-2-yl)-4H,7H-pyrazolo[1,5-a]pyrimidin-7-one]
Cc1noc(-c2cnn3c(=O)cc(-c4ccc(Cl)cc4)[nH]c23)n1 [Example 7, 5-(4-chlorophenyl)-3-(3-methyl-1,2,4-oxadiazol-5-yl)-4H,7H-pyrazolo[1,5-a]pyrimidin-7-one]
Cc1noc2ccc(-c3cc(=O)n4ncc(-c5ncco5)c4[nH]3)cc12 [Example 110, 5-(3-methylbenzo[d]isoxazol-5-yl)-3-(oxazol-2-yl)pyrazolo[1,5-a]pyrimidin-7(4H)-one]
CCOc1cc(-c2cc(=O)n3ncc(-c4ncc(CC)o4)c3[nH]2)ccc1Cl [Example 35, 5-(4-chloro-3-ethoxyphenyl)-3-(5-ethyloxazol-2-yl)-4H,7H-pyrazolo[1,5-a]pyrimidin-7-one]
CCn1ncc2cc(-c3cc(=O)n4nc(C)c(-c5nc(C)co5)c4[nH]3)ccc21 [Example 42, 5-(1-ethyl-1H-indazol-5-yl)-2-methyl-3-(4-methyloxazol-2-yl)-4H,7H-pyrazolo[1,5-a]pyrimidin-7-one]
Cc1noc2cc(-c3cc(=O)n4ncc(-c5ncco5)c4[nH]3)ccc12 [Example 118, 5-(3-methylbenzo[d]isoxazol-6-yl)-3-(oxazol-2-yl)pyrazolo[1,5-a]pyrimidin-7(4H)-one]
CCn1ncc2cc(-c3cc(=O)n4nc(C)c(-c5nc(C)no5)c4[nH]3)ccc21 [Example 115, 5-(1-ethyl-1H-indazol-5-yl)-2-methyl-3-(3-methyl-1,2,4-oxadiazol-5-yl)-4H,7H-pyrazolo[1,5-a]pyrimidin-7-one]
CCOc1cc(-c2cc(=O)n3ncc(-c4ncc(C)o4)c3[nH]2)ccc1F [Example 36, 5-(3-ethoxy-4-fluorophenyl)-3-(5-methyloxazol-2-yl)-4H,7H-pyrazolo[1,5-a]pyrimidin-7-one]
CCc1noc2cc(-c3cc(=O)n4ncc(-c5ncco5)c4[nH]3)ccc12 [Example 120, 5-(3-Ethylbenzo[d]isoxazol-6-yl)-3-(oxazol-2-yl)pyrazolo[1,5-a]pyrimidin-7(4H)-one]
CCn1ncc2cc(-c3cc(=O)n4ncc(-c5nccs5)c4[nH]3)ccc21 [Example 26, 5-(1-ethyl-1H-indazol-5-yl)-3-(thiazol-2-yl)-4H,7H-pyrazolo[1,5-a]pyrimidin-7-one]
COc1cc(-c2cc(=O)n3ncc(-c4nc5ccccc5s4)c3[nH]2)ccc1Cl [Example 41, 3-(benzo[d]thiazol-2-yl)-5-(4-chloro-3-methoxyphenyl)pyrazolo[1,5-a]pyrimidin-7(4H)-one]
CCn1ncc2cc(-c3cc(=O)n4ncc(-c5nnc(C)o5)c4[nH]3)ccc21 [Example 31, 5-(1-ethyl-1H-indazol-5-yl)-3-(5-methyl-1,3,4-oxadiazol-2-yl)-4H,7H-pyrazolo[1,5-a]pyrimidin-7-one]
Cc1cnc(-c2cnn3c(=O)cc(-c4ccc(Cl)c(Cl)c4)[nH]c23)s1 [Example 102, 5-(3,4-dichlorophenyl)-3-(5-methylthiazol-2-yl)pyrazolo[1,5-a]pyrimidin-7(4H)-one]
CCCn1ncc2cc(-c3cc(=O)n4ncc(-c5ncc(C)o5)c4[nH]3)ccc21 [Example 103, 3-(5-methyloxazol-2-yl)-5-(1-propyl-1H-indazol-5-yl)pyrazolo[1,5-a]pyrimidin-7(4H)-one]
Cn1ncc2cc(-c3cc(=O)n4ncc(C#N)c4[nH]3)ccc21 [Example 108, 5-(1-methyl-1H-indazol-5-yl)-7-oxo-4H,7H-pyrazolo[1,5-a]pyrimidine-3-carbonitrile]
CCn1nnc2cc(-c3cc(=O)n4ncc(-c5ncco5)c4[nH]3)ccc21 [Example 49, 5-(1-ethyl-1H-benzo[d][1,2,3]triazol-5-yl)-3-(oxazol-2-yl)pyrazolo[1,5-a]pyrimidin-7(4H)-one]
Cc1cnc(-c2cnn3c(=O)cc(-c4ccc(Cl)c(OCC(F)(F)F)c4)[nH]c23)o1 [Example 37, 5-[4-chloro-3-(2,2,2-trifluoroethoxy)phenyl]-3-(5-methyloxazol-2-yl)-4H,7H-pyrazolo[1,5-a]pyrimidin-7-one]
Cc1csc(-c2cnn3c(=O)cc(-c4ccc5c(cnn5C)c4)[nH]c23)n1 [Example 72, 5-(1-methyl-1H-indazol-5-yl)-3-(4-methylthiazol-2-yl)pyrazolo[1,5-a]pyrimidin-7(4H)-one]
COc1cc(-c2cc(=O)n3ncc(-c4ncc(-c5ccccc5)o4)c3[nH]2)ccc1Cl [Example 63, 5-(4-chloro-3-methoxyphenyl)-3-(5-phenyloxazol-2-yl)-4H,7H-pyrazolo[1,5-a]pyrimidin-7-one]
Cc1noc(-c2cnn3c(=O)cc(-c4ccc5c(c4)OCCO5)[nH]c23)n1 [Example 97, 5-(2,3-dihydrobenzo[b][1,4]dioxin-6-yl)-3-(3-methyl-1,2,4-oxadiazol-5-yl)pyrazolo[1,5-a]pyrimidin-7(4H)-one]
CCn1ncc2cc(-c3cc(=O)n4ncc(-c5ccnn5C)c4[nH]3)ccc21 [Example 53, 5-(1-ethyl-1H-indazol-5-yl)-3-(1-methyl-1H-pyrazol-5-yl)pyrazolo[1,5-a]pyrimidin-7(4H)-one]
CCc1nn2c(=O)cc(-c3ccc(Cl)c(OC)c3)[nH]c2c1-c1nc(C)no1 [Example 117, 5-(4-chloro-3-methoxyphenyl)-2-ethyl-3-(3-methyl-1,2,4-oxadiazol-5-yl)-4H,7H-pyrazolo[1,5-a]pyrimidin-7-one]
CCc1coc(-c2cnn3c(=O)cc(-c4ccc5c(cnn5CC)c4)[nH]c23)n1 [Example 28, 5-(1-ethyl-1H-indazol-5-yl)-3-(4-ethyloxazol-2-yl)pyrazolo[1,5-a]pyrimidin-7(4H)-one]
CCn1ncc2ccc(-c3cc(=O)n4ncc(-c5ncco5)c4[nH]3)cc21 [Example 109, 5-(1-ethyl-1H-indazol-6-yl)-3-(oxazol-2-yl)pyrazolo[1,5-a]pyrimidin-7(4H)-one]
Cc1cnc(-c2cnn3c(=O)cc(-c4ccc5c(C)noc5c4)[nH]c23)o1 [Example 119, 5-(3-Methylbenzo[d]isoxazol-6-yl)-3-(5-methyloxazol-2-yl)pyrazolo[1,5-a]pyrimidin-7(4H)-one]
N#Cc1cc(-c2cc(=O)n3ncc(-c4ncco4)c3[nH]2)ccc1O [Example 75, 2-hydroxy-5-(3-(oxazol-2-yl)-7-oxo-4,7-dihydropyrazolo[1,5-a]pyrimidin-5-yl)benzonitrile]
Cc1csc(-c2cnn3c(=O)cc(-c4ccc(Cl)c(Cl)c4)[nH]c23)n1 [Example 101, 5-(3,4-dichlorophenyl)-3-(4-methylthiazol-2-yl)pyrazolo[1,5-a]pyrimidin-7(4H)-one]
